Measured values taken from ChEMBL document CHEMBL1201862, “PubChem BioAssay data set” (2004).
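Exposure lasted 48 hours, with cells grown in 96-well plates and compounds tested at five concentrations. At the GI50, growth is halved.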 Calls of active or inactive are those of the source. Cut-off read from the data, not from the text of the source: active = GI50 up to about 1.1 µM and inactive = higher.

Assays:
Test in all cases: NCI tumour cell line growth inhibition, 48 h
786-0 = system: 786-0
A498 = system: A498
CCRF-CEM = system: CCRF-CEM
HCC 2998 = system: HCC 2998
HCT-116 = system: HCT-116
HL-60 = system: HL-60
K562 = system: K562
MDA-N = system: MDA-N
OVCAR-3 = system: OVCAR-3
RXF 393 = system: RXF 393
SF-295 = system: SF-295
SK-OV-3 = system: SK-OV-3
SNB-19 = system: SNB-19
SW-620 = system: SW-620
UACC-62 = system: UACC-62
UO-31 = system: UO-31
MOLT-4 = system: MOLT-4
NCI-H226 = system: NCI-H226
OVCAR-4 = system: OVCAR-4
RPMI-8226 = system: RPMI-8226

Measured: GI50

O=C(Nc1ccc(Cl)cc1Cl)c1cc2nc3ccccc3c(=O)n2c2ccccc12
inactive: 786-0 > 10 µM | A498 > 10 µM | CCRF-CEM > 10 µM | HCC 2998 > 10 µM | HCT-116 > 10 µM | HL-60 > 10 µM | K562 > 10 µM | MDA-N > 10 µM | OVCAR-3 > 10 µM | RXF 393 > 10 µM | SF-295 > 10 µM | SK-OV-3 > 10 µM | SNB-19 > 10 µM | SW-620 > 10 µM | UACC-62 > 10 µM | UO-31 > 10 µM

CN(C)c1ccc(C2CC(c3ccc4ccccc4c3O)=NN2c2ccc([N+](=O)[O-])cc2[N+](=O)[O-])cc1 (configuration not stated)
inactive: 786-0 > 100 µM | A498 68.4 µM | CCRF-CEM 22.3 µM | HCC 2998 71 µM | HCT-116 37.5 µM | MDA-N 16.3 µM | MOLT-4 22.8 µM | NCI-H226 89.5 µM | OVCAR-3 22 µM | OVCAR-4 > 100 µM | RXF 393 41.2 µM | SF-295 40.1 µM | SK-OV-3 > 100 µM | SW-620 36.3 µM | UACC-62 14.3 µM | UO-31 27.4 µM

CCCCC1=C(C(=O)N2CCOCC2)C2(OCCO2)C1Cl (configuration not stated)
inactive: 786-0 36.4 µM | A498 66.7 µM | CCRF-CEM > 100 µM | HCT-116 41.7 µM | HL-60 > 100 µM | MDA-N 14.8 µM | MOLT-4 > 100 µM | NCI-H226 35.8 µM | OVCAR-4 28.8 µM | RXF 393 29.5 µM | SF-295 28.1 µM | SK-OV-3 26 µM | SNB-19 32.3 µM | SW-620 31 µM | UACC-62 31.6 µM | UO-31 56.6 µM

N=C(N)C1CN(CC=O)C(=O)NC1=O (configuration not stated)
inactive: 786-0 > 100 µM | A498 > 100 µM | CCRF-CEM > 100 µM | HCC 2998 > 100 µM | HCT-116 > 100 µM | HL-60 > 100 µM | K562 > 100 µM | MDA-N > 100 µM | MOLT-4 > 100 µM | NCI-H226 > 100 µM | OVCAR-3 > 100 µM | OVCAR-4 > 100 µM | RPMI-8226 > 100 µM | SF-295 > 100 µM | SK-OV-3 > 100 µM | SNB-19 > 100 µM | SW-620 > 100 µM | UACC-62 > 100 µM | UO-31 > 100 µM
